# Experimental data reported in article PMC10926205 (iScience, 2024).
# Entries after “also recorded” stand apart in the source; their conditions may differ. Where two headings read alike, the source gives them in different places.
# Columns and labels:
# ERα [1] = biological target: T1, ERα (Homo sapiens, UniProt P03372); assay: cell-based; format: cell-based; settings: for selectivity for either estrogen receptor: ERα vs ERβ array EC50; for EC50 / PRL-ERα EC50 (nM): array formation (DNA binding), 1 h; for EC50 / PRL-ERα EC50 (nM) / ERα DNA binding and transcription at the 100nM dose: ERα-GFP:PRL-HeLa
# T1 sequence (P03372 1-595): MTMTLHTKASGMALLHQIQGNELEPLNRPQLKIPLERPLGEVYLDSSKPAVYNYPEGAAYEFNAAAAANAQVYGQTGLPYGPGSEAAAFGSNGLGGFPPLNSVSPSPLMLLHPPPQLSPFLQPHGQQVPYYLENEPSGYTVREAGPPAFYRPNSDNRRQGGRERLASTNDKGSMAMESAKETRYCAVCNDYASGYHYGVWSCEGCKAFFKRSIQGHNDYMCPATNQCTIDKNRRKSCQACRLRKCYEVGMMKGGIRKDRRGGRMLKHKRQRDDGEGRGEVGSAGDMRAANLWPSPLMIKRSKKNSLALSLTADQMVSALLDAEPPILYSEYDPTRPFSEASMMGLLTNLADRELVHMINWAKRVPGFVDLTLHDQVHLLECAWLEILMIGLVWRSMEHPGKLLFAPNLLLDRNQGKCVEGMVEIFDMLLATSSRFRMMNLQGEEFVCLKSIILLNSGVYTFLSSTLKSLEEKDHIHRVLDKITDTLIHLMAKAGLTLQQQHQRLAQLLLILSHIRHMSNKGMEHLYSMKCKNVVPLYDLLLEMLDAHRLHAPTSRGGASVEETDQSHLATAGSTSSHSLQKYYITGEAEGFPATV
# GREB1 [2] = assay: GREB1 mRNA expression by qPCR in MCF-7; format: cell-based; settings: MCF-7, 24 h; for GREB1 transcription (qPCR) compared to DMSO: E2 1nM, IBV 10nM, PHX, genistein, ±equol 100nM, neobavaisoflavone, bavachin, isobavachalcone, daidzein 1μM
# [3] = test system: ERE-GFP reporter in the liver; assay: Transgenic zebrafish ERE-GFP reporter, liver; format: in vivo; settings: for ER signal (ERE-GFP) in the liver: highest nonlethal doses tested; for ERE-GFP activation in the zebrafish (liver or heart): nonlethal doses tested (<100μM)
# MCF-7 cells = assay: MCF-7 proliferation assay; format: cell-based; settings: 120 h; for increase in cell number of MCF-7 cells: compared with DMSO
# [4] = test system: ERE-GFP in the heart valves; assay: Transgenic zebrafish ERE-GFP reporter, heart valves; format: in vivo; settings: highest nonlethal doses tested
# ERβ [5] = biological target: T2, ERβ (Homo sapiens, UniProt Q92731); assay: cell-based; format: cell-based
# GREB1 [6] = assay: GREB1 smRNA FISH; format: cell-based; settings: MCF-7, 24 h; E2 1nM, IBV 10 and 100nM, PHX 100nM
# ERα or ERβ = format: cell-based; settings: flavonoid screen, cell line not stated
# ERα [7] = biological target: T1, ERα; assay: dsRed2 reporter RNA FISH in ERα-GFP:PRL-HeLa; format: cell-based
# ERβ [8] = biological target: T2, ERβ; assay: dsRed2 reporter RNA FISH in GFP-ERβ:PRL-HeLa; format: cell-based; settings: highest dose tested (10μM)
# [9] = biological target: T3, progesterone receptor (GFP-PR) (Homo sapiens, UniProt P06401); assay: GFP-PR PRL array biosensor cell line, array formation; format: cell-based; settings: 100nM
# T3 sequence (P06401 679-933 limits assumed): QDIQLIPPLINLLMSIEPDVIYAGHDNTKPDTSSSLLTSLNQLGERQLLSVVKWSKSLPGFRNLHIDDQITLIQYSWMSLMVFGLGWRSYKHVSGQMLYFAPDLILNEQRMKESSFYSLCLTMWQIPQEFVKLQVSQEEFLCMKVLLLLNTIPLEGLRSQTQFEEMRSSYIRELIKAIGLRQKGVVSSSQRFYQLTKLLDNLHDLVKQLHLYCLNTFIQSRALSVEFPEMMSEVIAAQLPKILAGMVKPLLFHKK
# ERα [10] = settings: read-out: EC50 for displacement of E2 from ERα in rat uteri; cited from earlier work
# [11] = array formation (DNA binding), GFP-ERβ:PRL-HeLa, 1 h
# [12] = read-out: PRL-ERβ EC50, array formation (DNA binding), GFP-ERβ:PRL-HeLa, 1 h
# T2 sequence (Q92731 whole entry): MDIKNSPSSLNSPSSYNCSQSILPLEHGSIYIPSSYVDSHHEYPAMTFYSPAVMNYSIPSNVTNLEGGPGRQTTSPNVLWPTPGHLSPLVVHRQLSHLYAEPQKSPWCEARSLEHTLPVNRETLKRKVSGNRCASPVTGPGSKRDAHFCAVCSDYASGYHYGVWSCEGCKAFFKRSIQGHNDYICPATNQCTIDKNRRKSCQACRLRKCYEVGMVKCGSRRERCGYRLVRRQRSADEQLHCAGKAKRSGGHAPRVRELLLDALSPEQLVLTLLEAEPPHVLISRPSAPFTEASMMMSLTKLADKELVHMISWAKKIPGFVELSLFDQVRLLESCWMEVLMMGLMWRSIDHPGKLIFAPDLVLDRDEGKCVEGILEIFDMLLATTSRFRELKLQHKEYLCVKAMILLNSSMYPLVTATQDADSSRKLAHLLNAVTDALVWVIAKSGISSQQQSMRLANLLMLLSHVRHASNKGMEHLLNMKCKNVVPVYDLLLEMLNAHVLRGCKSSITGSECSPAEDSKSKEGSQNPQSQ
smiles,measurement,setting,value
CC(C)=CCc1cc2c(cc1O)O[C@H](c1ccc(O)cc1)CC2=O [Bavachin],selectivity for either estrogen receptor,ERα [1],> 5 fold
same,GREB1 transcription (qPCR) compared to DMSO,GREB1 [2],activation of GREB1 transcription
O=c1c(-c2ccc(O)cc2)coc2cc(O)ccc12 [Daidzein],GREB1 transcription (qPCR) compared to DMSO,GREB1 [2],activation of GREB1 transcription
"C[C@]12CC[C@@H]3c4ccc(O)cc4CC[C@H]3[C@@H]1CC[C@@H]2O [E2, 17β-estradiol, reference compound]",ER signal (ERE-GFP) in the liver,[3],activate ER signal
same,increase in cell number of MCF-7 cells,MCF-7 cells,150%
same,ER signal (ERE-GFP) in the heart,[4],activate ER signal
same,fraction of cells with a visible array,ERβ [5],75%
same,GREB1 transcription (qPCR) compared to DMSO,GREB1 [2],activation of GREB1 transcription
same,induction of transcriptionally active GREB1 alleles,GREB1 [6],significant induction
COc1cc(O)ccc1/C=C/C(=O)c1ccc(O)cc1 [Echinatin],ERE-GFP activation in the zebrafish (liver or heart),[3],"Neither isosakuranetin, echinatin, nor loureirin A activated the ERE-GFP"
same,EC50 in MCF-7 growth assay,MCF-7 cells,sub-micromolar
same,EC50,ERα [1]; PRL-ERα EC50 (nM),174 nM
same,PRL-ERα EC50 (nM),ERα [1],sub-micromolar
same,EC50,ERβ [5],69.5 nM
same,PRL-ERβ EC50 (nM),ERβ [5]; [11],sub-micromolar
same,GREB1 gene expression compared to DMSO and E2,"GREB1 [2]; compounds 1μM, E2 10nM",induced expression to the same level as E2
"CN1CC[C@H](c2c(O)cc(O)c3c(=O)cc(-c4ccccc4Cl)oc23)[C@H](O)C1 [Flavopiridol (Alvocidib), Flavopiridol, reference compound]",transcriptional output (dsRed2 FISH) versus DMSO,ERα or ERβ,suppressed transcriptional output to a lower level than DMSO
"CN1CC[C@H](c2c(O)cc(O)c3c(=O)cc(-c4ccccc4Cl)oc23)[C@H](O)C1.Cl [Flavopiridol HCl, reference compound]",transcriptional output (dsRed2 FISH) versus DMSO,ERα or ERβ,suppressed transcriptional output to a lower level than DMSO
O=c1c(-c2ccc(O)cc2)coc2cc(O)cc(O)c12 [Genistein],GREB1 transcription (qPCR) compared to DMSO,GREB1 [2],activation of GREB1 transcription
COc1cc(-c2coc3cc(O)c(OC)c(O)c3c2=O)cc(O)c1OC [Irigenin],transcriptional output (dsRed2 FISH) versus DMSO,ERα or ERβ,suppressed transcription
CC(C)=CCc1c(O)ccc(C(=O)/C=C/c2ccc(O)cc2)c1O [Isobavachalcone],selectivity for either estrogen receptor,ERα [1],> 5 fold
same,GREB1 transcription (qPCR) compared to DMSO,GREB1 [2],activation of GREB1 transcription
CC(C)=CCc1c(O)ccc2c1O[C@H](c1ccc(O)cc1)CC2=O [Isobavachin],ERα DNA binding and transcription at the 100nM dose,ERα [1],induced ERα DNA binding and transcription
same,EC50,ERα [1]; PRL-ERα EC50 (nM),1.28 nM
same,activity in GFP-ERβ:PRL-HeLa cells at the 100nM dose,ERβ [5]; 100nM,also active
C=CC(C)(C)c1cc(/C=C/C(=O)c2ccc(O)cc2)c(OC)cc1O [Licochalcone A],RNA FISH expression in ERα-GFP:PRL-HeLa,ERα [7]; highest dose tested (10μM),did not activate RNA FISH expression
same,EC50,ERα [1]; read-out: PRL-ERα EC50,508 nM
same,preference for ERβ compared to ERα,ERβ [5]; array EC50,5 fold
same,EC50,ERβ [5]; [12],92.1 nM
same,dsRed2 reporter gene activation in GFP-ERβ:PRL-HeLa,ERβ [8],did activate the dsRed2 reporter gene
COc1ccc(CCC(=O)c2ccc(O)cc2)c(OC)c1 [Loureirin A],ERE-GFP activation in the zebrafish (liver or heart),[3],"Neither isosakuranetin, echinatin, nor loureirin A activated the ERE-GFP"
same,EC50 in MCF-7 growth assay,MCF-7 cells,sub-micromolar
same,"MCF-7 cell proliferation, reaching the level of E2",MCF-7 cells,not able to reach the level of E2
same,increase in cell number of MCF-7 cells,MCF-7 cells,50%
same,PRL-ERα EC50 (nM),ERα [1],sub-micromolar
same,EC50,ERα [1]; read-out: PRL-ERα EC50,50 nM
same,PRL-ERβ EC50 (nM),ERβ [5]; [11],sub-micromolar
same,EC50,ERβ [5]; [12],76.2 nM
CC(C)=CCc1cc(-c2coc3cc(O)ccc3c2=O)ccc1O [Neobavaisoflavone],selectivity for either estrogen receptor,ERα [1],> 5 fold
same,GREB1 transcription (qPCR) compared to DMSO,GREB1 [2],activation of GREB1 transcription
COc1ccc(-c2cc(=O)c3c(O)cc(O[C@@H]4O[C@H](CO)[C@@H](O)[C@H](O)[C@H]4O[C@@H]4O[C@@H](C)[C@H](O)[C@@H](O)[C@H]4O)cc3o2)cc1O [Neodiosmin],ERα DNA binding and transcription at the 100nM dose,ERα [1],induced ERα DNA binding and transcription
"CC(=O)[C@H]1CC[C@H]2[C@@H]3CCC4=CC(=O)CC[C@]4(C)[C@H]3CC[C@]12C [P4, progesterone]",array formation in GFP-PR cell line (controls),[9],successfully induced array formation
CN1CCC(c2c(O)cc(O)c3c(=O)cc(-c4ccccc4Cl)oc23)C1CO (stereo not shown) [P276-00],gene transcription (dsRed2 RNA FISH) compared to DMSO,"ERα [7]; 10μM, 1 h, hits in ERα-GFP:PRL-HeLa",suppress gene transcription
same,transcriptional output (dsRed2 FISH) versus DMSO,ERα or ERβ,suppressed transcriptional output to a lower level than DMSO; also recorded: suppressed transcription
"Oc1ccc(C2=Cc3ccc(O)cc3OC2)cc1 [Phenoxodiol (Haginin E), Phenoxodiol]",ER signal (ERE-GFP) in the liver,[3],activate ER signal
same,ER signal (ERE-GFP) in the heart,[4],activate ER signal
same,activity in GFP-ERβ:PRL-HeLa cells at the 100nM dose,ERβ [5],also active
same,GREB1 transcription (qPCR) compared to DMSO,GREB1 [2],activation of GREB1 transcription
same,EC50,ERα [10],~500 nM
CCC(=O)[C@@]1(C)CC[C@H]2[C@@H]3CCC4=CC(=O)CCC4=C3CC[C@@]21C [R5020],array formation in GFP-PR cell line (controls),[9],successfully induced array formation
Oc1ccc([C@H]2COc3cc(O)ccc3C2)cc1 [S-Equol],ERα DNA binding and transcription at the 100nM dose,ERα [1],induced ERα DNA binding and transcription
same,activity in GFP-ERβ:PRL-HeLa cells at the 100nM dose,ERβ [5]; 100nM,also active
